Results from paper PMC6838151 (Scientific Reports, 2019).
Converted amounts (≈) assume the structure as drawn.

Each molecule was assayed on S. cerevisiae erg6Δ (assay: MIC50 growth inhibition, S. cerevisiae erg6Δ deletion mutant, 48 h). Settings: Saccharomyces cerevisiae.
Format: cell-based, Saccharomyces cerevisiae
Source text: For the preliminary studies of the biological activity of the studied compound we chose S. cerevisiae, which is generally considered a non-pathogenic organism, but currently recognized as a potentially important agent causing opportunistic infections against immunocompromised patients. In order to assess whether all the Ke derivatives share the mechanism of action with the parent compound, or if they might present different or additional modes of action, the inhibitory concentration MIC50 (Table 2) was determined on the basis of the dose-response curves (Fig. S11 in ESI) in a 48 h assay against S. cerevisiae wt strain BY4741 and the deletion mutant erg6Δ, which lacks the gene coding for the S-adenosylmethionine: 24-methyltransferase[52], accumulating cholesta-5,7,24-trienol and zymosterol instead of ergosterol. There are several studies reporting that the ERG6 gene deletion may increase the resistance of S. cerevisiae cells to azole compounds[54]–[56]. […] The value determined for the wt strain is in very good agreement with previous studies carried out under similar condition (48 h, 30 °C) (e.g.[57]).
(§1) The following strains of S. cerevisiae were used in this study: BY4741 (wild type towards erg6Δ, ACC Y00000; MATa; his3Δ1; leu2Δ0; met15Δ0; ura3Δ0), erg6Δ (ACC Y00568; BY4741 isogenic with YML008c::kanMX4), W303 (wild type towards AD1-8; MATα; leu2-3,112 trp1-1 can1-100 ura3-1 ade2-1 his3-11,15 AD1-8 (W303 isogenic with pdr1-3, ura3, his1, yor1∆::hisG, snq2∆::hisG, pdr5∆::hisG, pdr10∆::hisG, pdr11∆:: hisG, ycf1∆::hisG, pdr3∆::hisG, pdr15∆::hisG). BY4741 and erg6Δ were acquired from EUROSCARF, Frankfurt, Germany; W303 and AD1-8 were kind gifts from Prof. A. Goffeau, Chaire Internationale Blaise Pascal, Lab. Genet. Mol., École Normale Supérieure, Paris, and Prof. M. Ghislain, Université Catholique de Louvain, Faculté des sciences Agronomiques, Louvain-la-Neuve, Belgium. Visible turbid overnight cultures of S. cerevisiae strains were prepared and diluted to A600 ≈ 0.1 in fresh Yeast Extract – Peptone - Dextrose (YPD) medium. The cultures were transferred to 96 microtiter well plates containing aliquots of serially diluted antifungal drugs (Ke and its derivatives: KeP, KeOP, KeSP, KeSeP), prepared from DMS stock solutions and drug-free controls. The yeast cultures were statically incubated at 30 °C for 48 hours with compounds[88]. The dose-response curves were analysed with GraphPad Prism 5 software (San Diego, USA) or a microplate reader ASYS UVM (Biogenet). All values presented are the mean of at least three independent experiments.

SMILES	MIC50 [µM]
Clc1ccc([C@@]2(Cn3ccnc3)OC[C@H](COc3ccc(N4CCN(CP(c5ccccc5)c5ccccc5)CC4)cc3)O2)c(Cl)c1 (racemic) [KeP, Ph2PCH2-Ke]	0.654 (≈ 0.45 µg/mL)
Clc1ccc([C@@]2(Cn3ccnc3)OC[C@H](COc3ccc(N4CCN(CP(=[Se])(c5ccccc5)c5ccccc5)CC4)cc3)O2)c(Cl)c1 [KeSeP, Ph2P(Se)CH2-Ke]	0.578 (≈ 0.443 µg/mL)
O=P(CN1CCN(c2ccc(OC[C@H]3CO[C@](Cn4ccnc4)(c4ccc(Cl)cc4Cl)O3)cc2)CC1)(c1ccccc1)c1ccccc1 (racemic) [KeOP, Ph2P(O)CH2-Ke]	0.00482 (≈ 0.00339 µg/mL)

The molecules below were run on S. cerevisiae WT (W303) (assay: MIC50 growth inhibition, S. cerevisiae wt W303, 48 h). Settings: Saccharomyces cerevisiae.
Format: cell-based
Source text: as §1, with “The cultures were transferred to 96 microtiter well plates containing aliquots of serially diluted antifungal drugs (Ke and its derivatives: KeP, KeOP, KeSP, KeSeP), prepared from DMS stock solutions and drug-free controls.” left out

SMILES	MIC50 [µM]
O=P(CN1CCN(c2ccc(OC[C@H]3CO[C@](Cn4ccnc4)(c4ccc(Cl)cc4Cl)O3)cc2)CC1)(c1ccccc1)c1ccccc1 (racemic) [KeOP, Ph2P(O)CH2-Ke]	3.13 (≈ 2.2 µg/mL)

Same assay, conditions: Saccharomyces cerevisiae, S. cerevisiae WT (W303), YPD, 30 °C, read-out: MIC50

SMILES	MIC50 [µM]
Clc1ccc([C@@]2(Cn3ccnc3)OC[C@H](COc3ccc(N4CCN(CP(c5ccccc5)c5ccccc5)CC4)cc3)O2)c(Cl)c1 (racemic) [KeP, Ph2PCH2-Ke]	12.5 (≈ 8.6 µg/mL)
Clc1ccc([C@@]2(Cn3ccnc3)OC[C@H](COc3ccc(N4CCN(CP(=[Se])(c5ccccc5)c5ccccc5)CC4)cc3)O2)c(Cl)c1 [KeSeP, Ph2P(Se)CH2-Ke]	50 (≈ 38.3 µg/mL)

What follows are molecules tested on C. albicans B4 (assay: microbe, parasite or virus in culture). Settings: B4 vs B3.
Format: cell-based, Candida albicans
Source text: (§2) The C. albicans CAF2-1 (Genotype/Description: ura3Δ::imm434/URA3[89]) and DSY1050 (Genotype/Description: cdr1Δ::hisG/cdr1Δ::hisG/cdr2Δ::hisG/cdr2Δ::hisG/mdr1Δ::hisG-URA3-hisG/mdr1Δ::hisG[90]) strains used in this study were generous gift from D. Sanglard (Lausanne, Switzerland)[91],[92] whereas C. albicans B3 and Gu4 (Genotype/Description: clinical isolates fluconazole sensitive)[93]), B4 (Genotype/Description: Clinical isolate fluconazole resistant due to the overexpression of MDR1[93]) and Gu5 (Genotype/Description: Clinical isolate fluconazole resistant due to the overexpression of CDR1 and CDR2[93]) were a generous gift from prof. S. Milewski (Gdańsk, Poland)[94] and prof. J. Morschhäuser (Wurzburg, Germany)[93]. All strains were grown at 37 °C on Sabouraud medium (Biomerieux).
(§3) The antifungal activity was determined on the 96-well polystyrene microtiter plates (Sarstedt) according to Clinical and Laboratory Standards Institute M27-A3[95]. […] The compounds were dissolved in DMSO (10 mM) and then serially diluted in RPMI-1640 (ThermoFisher) medium to obtain the final concentration range. Inocula of all strains were prepared as suspensions with turbidity of 0.5 McFarland standard in sterile 0.85% saline and diluted in RPMI-1640. After inoculation, each well contained appr. 5 × 10^2 CFU/mL. The plates were cultivated for 48 h at 37 °C. Optical density was measured at A490nm using a microplate reader ASYS UVM 340 (Biogenet).

SMILES	times higher resistance of B4 than B3
Clc1ccc([C@@]2(Cn3ccnc3)OC[C@H](COc3ccc(N4CCN(CP(c5ccccc5)c5ccccc5)CC4)cc3)O2)c(Cl)c1 (racemic) [KeP, Ph2PCH2-Ke]	eight
Clc1ccc([C@@]2(Cn3ccnc3)OC[C@H](COc3ccc(N4CCN(CP(=[Se])(c5ccccc5)c5ccccc5)CC4)cc3)O2)c(Cl)c1 [KeSeP, Ph2P(Se)CH2-Ke]	two
O=P(CN1CCN(c2ccc(OC[C@H]3CO[C@](Cn4ccnc4)(c4ccc(Cl)cc4Cl)O3)cc2)CC1)(c1ccccc1)c1ccccc1 (racemic) [KeOP, Ph2P(O)CH2-Ke]	two

Same assay, conditions: Candida albicans, B4, 48 h

SMILES	MIC50 [µM]
Clc1ccc([C@@]2(Cn3ccnc3)OC[C@H](COc3ccc(N4CCN(CP(c5ccccc5)c5ccccc5)CC4)cc3)O2)c(Cl)c1 (racemic) [KeP, Ph2PCH2-Ke]	3.13 (≈ 2.15 µg/mL)
Clc1ccc([C@@]2(Cn3ccnc3)OC[C@H](COc3ccc(N4CCN(CP(=[Se])(c5ccccc5)c5ccccc5)CC4)cc3)O2)c(Cl)c1 [KeSeP, Ph2P(Se)CH2-Ke]	6.25 (≈ 4.79 µg/mL)
O=P(CN1CCN(c2ccc(OC[C@H]3CO[C@](Cn4ccnc4)(c4ccc(Cl)cc4Cl)O3)cc2)CC1)(c1ccccc1)c1ccccc1 (racemic) [KeOP, Ph2P(O)CH2-Ke]	3.13 (≈ 2.2 µg/mL)

What follows are molecules tested on C. albicans CAF2-1 (assay: microbe, parasite or virus in culture). Settings: C. albicans CAF2-1, MIC50 ratio.
Format: cell-based, Candida albicans
Source text: as §2, §3

SMILES	times more active than Flc
Clc1ccc([C@@]2(Cn3ccnc3)OC[C@H](COc3ccc(N4CCN(CP(c5ccccc5)c5ccccc5)CC4)cc3)O2)c(Cl)c1 (racemic) [KeP, Ph2PCH2-Ke]	two
Clc1ccc([C@@]2(Cn3ccnc3)OC[C@H](COc3ccc(N4CCN(CP(=[Se])(c5ccccc5)c5ccccc5)CC4)cc3)O2)c(Cl)c1 [KeSeP, Ph2P(Se)CH2-Ke]	two
O=P(CN1CCN(c2ccc(OC[C@H]3CO[C@](Cn4ccnc4)(c4ccc(Cl)cc4Cl)O3)cc2)CC1)(c1ccccc1)c1ccccc1 (racemic) [KeOP, Ph2P(O)CH2-Ke]	eight

Same assay, conditions: Candida albicans, CAF21, 48 h

SMILES	MIC50 [µM]
Clc1ccc([C@@]2(Cn3ccnc3)OC[C@H](COc3ccc(N4CCN(CP(c5ccccc5)c5ccccc5)CC4)cc3)O2)c(Cl)c1 (racemic) [KeP, Ph2PCH2-Ke]	3.13 (≈ 2.15 µg/mL)
Clc1ccc([C@@]2(Cn3ccnc3)OC[C@H](COc3ccc(N4CCN(CP(=[Se])(c5ccccc5)c5ccccc5)CC4)cc3)O2)c(Cl)c1 [KeSeP, Ph2P(Se)CH2-Ke]	3.13 (≈ 2.4 µg/mL)
O=P(CN1CCN(c2ccc(OC[C@H]3CO[C@](Cn4ccnc4)(c4ccc(Cl)cc4Cl)O3)cc2)CC1)(c1ccccc1)c1ccccc1 (racemic) [KeOP, Ph2P(O)CH2-Ke]	0.78 (≈ 0.549 µg/mL)

The molecules below were run on C. albicans DSY1050 (assay: microbe, parasite or virus in culture). Settings: Candida albicans, DSY1050, 48 h.
Format: cell-based, Candida albicans
Source text: as §2, §3

SMILES	MIC50 [µM]
Clc1ccc([C@@]2(Cn3ccnc3)OC[C@H](COc3ccc(N4CCN(CP(c5ccccc5)c5ccccc5)CC4)cc3)O2)c(Cl)c1 (racemic) [KeP, Ph2PCH2-Ke]	0.78 (≈ 0.536 µg/mL)
Clc1ccc([C@@]2(Cn3ccnc3)OC[C@H](COc3ccc(N4CCN(CP(=[Se])(c5ccccc5)c5ccccc5)CC4)cc3)O2)c(Cl)c1 [KeSeP, Ph2P(Se)CH2-Ke]	0.78 (≈ 0.598 µg/mL)
O=P(CN1CCN(c2ccc(OC[C@H]3CO[C@](Cn4ccnc4)(c4ccc(Cl)cc4Cl)O3)cc2)CC1)(c1ccccc1)c1ccccc1 (racemic) [KeOP, Ph2P(O)CH2-Ke]	0.2 (≈ 0.141 µg/mL)

Same assay, conditions: DSY1050 vs CAF2-1

SMILES	times more susceptible than parental strain (CAF2-1)
Clc1ccc([C@@]2(Cn3ccnc3)OC[C@H](COc3ccc(N4CCN(CP(c5ccccc5)c5ccccc5)CC4)cc3)O2)c(Cl)c1 (racemic) [KeP, Ph2PCH2-Ke]	four
Clc1ccc([C@@]2(Cn3ccnc3)OC[C@H](COc3ccc(N4CCN(CP(=[Se])(c5ccccc5)c5ccccc5)CC4)cc3)O2)c(Cl)c1 [KeSeP, Ph2P(Se)CH2-Ke]	four
O=P(CN1CCN(c2ccc(OC[C@H]3CO[C@](Cn4ccnc4)(c4ccc(Cl)cc4Cl)O3)cc2)CC1)(c1ccccc1)c1ccccc1 (racemic) [KeOP, Ph2P(O)CH2-Ke]	four

What follows are molecules tested on C. albicans Gu5 (assay: microbe, parasite or virus in culture). Settings: C. albicans Gu5, RPMI-1640, 37 °C, 48 h.
Format: cell-based, Candida albicans
Source text: as §2, §3

SMILES	MIC50
Clc1ccc([C@@]2(Cn3ccnc3)OC[C@H](COc3ccc(N4CCN(CP(=[Se])(c5ccccc5)c5ccccc5)CC4)cc3)O2)c(Cl)c1 [KeSeP, Ph2P(Se)CH2-Ke]	no inhibitory effect

Same assay, conditions: Candida albicans, GU5, 48 h

SMILES	MIC50 [µM]
Clc1ccc([C@@]2(Cn3ccnc3)OC[C@H](COc3ccc(N4CCN(CP(c5ccccc5)c5ccccc5)CC4)cc3)O2)c(Cl)c1 (racemic) [KeP, Ph2PCH2-Ke]	50 (≈ 34.4 µg/mL)
Clc1ccc([C@@]2(Cn3ccnc3)OC[C@H](COc3ccc(N4CCN(CP(=[Se])(c5ccccc5)c5ccccc5)CC4)cc3)O2)c(Cl)c1 [KeSeP, Ph2P(Se)CH2-Ke]	> 200
O=P(CN1CCN(c2ccc(OC[C@H]3CO[C@](Cn4ccnc4)(c4ccc(Cl)cc4Cl)O3)cc2)CC1)(c1ccccc1)c1ccccc1 (racemic) [KeOP, Ph2P(O)CH2-Ke]	25 (≈ 17.6 µg/mL)

Same assay, conditions: Gu5 vs Gu4

SMILES	times more resistant than Gu4 strain
Clc1ccc([C@@]2(Cn3ccnc3)OC[C@H](COc3ccc(N4CCN(CP(c5ccccc5)c5ccccc5)CC4)cc3)O2)c(Cl)c1 (racemic) [KeP, Ph2PCH2-Ke]	sixteen
O=P(CN1CCN(c2ccc(OC[C@H]3CO[C@](Cn4ccnc4)(c4ccc(Cl)cc4Cl)O3)cc2)CC1)(c1ccccc1)c1ccccc1 (racemic) [KeOP, Ph2P(O)CH2-Ke]	two

The molecules below were run on C. albicans B3 (assay: microbe, parasite or virus in culture). Settings: Candida albicans; C. albicans B3, RPMI-1640, 37 °C, 48 h; read-out: MIC50.
Format: cell-based
Source text: as §2, §3

SMILES	MIC50 [µM]
Clc1ccc([C@@]2(Cn3ccnc3)OC[C@H](COc3ccc(N4CCN(CP(c5ccccc5)c5ccccc5)CC4)cc3)O2)c(Cl)c1 (racemic) [KeP, Ph2PCH2-Ke]	0.39 (≈ 0.268 µg/mL)
Clc1ccc([C@@]2(Cn3ccnc3)OC[C@H](COc3ccc(N4CCN(CP(=[Se])(c5ccccc5)c5ccccc5)CC4)cc3)O2)c(Cl)c1 [KeSeP, Ph2P(Se)CH2-Ke]	3.13 (≈ 2.4 µg/mL)
O=P(CN1CCN(c2ccc(OC[C@H]3CO[C@](Cn4ccnc4)(c4ccc(Cl)cc4Cl)O3)cc2)CC1)(c1ccccc1)c1ccccc1 (racemic) [KeOP, Ph2P(O)CH2-Ke]	1.56 (≈ 1.1 µg/mL)

Each molecule was assayed on C. albicans Gu4 (assay: microbe, parasite or virus in culture). Settings: Candida albicans, GU4, 48 h.
Format: cell-based
Source text: as §2, §3

SMILES	MIC50 [µM]
Clc1ccc([C@@]2(Cn3ccnc3)OC[C@H](COc3ccc(N4CCN(CP(c5ccccc5)c5ccccc5)CC4)cc3)O2)c(Cl)c1 (racemic) [KeP, Ph2PCH2-Ke]	3.13 (≈ 2.15 µg/mL)
Clc1ccc([C@@]2(Cn3ccnc3)OC[C@H](COc3ccc(N4CCN(CP(=[Se])(c5ccccc5)c5ccccc5)CC4)cc3)O2)c(Cl)c1 [KeSeP, Ph2P(Se)CH2-Ke]	12.5 (≈ 9.58 µg/mL)
O=P(CN1CCN(c2ccc(OC[C@H]3CO[C@](Cn4ccnc4)(c4ccc(Cl)cc4Cl)O3)cc2)CC1)(c1ccccc1)c1ccccc1 (racemic) [KeOP, Ph2P(O)CH2-Ke]	12.5 (≈ 8.8 µg/mL)
